The numbers were not newly measured in patent US11672863B2, “Enhanced solubility drug-containing formulations” (United Therapeutics Corporation, priority 2017, dated 2023), which cites them from elsewhere.

Where a name gives a salt, the structure may show the parent alone.

One may read the solubility as how much of the substance goes into solution per volume.

For this series the following is noted: in water between pH 1.8 and 6.

With `CCCCN1CCCCC1C(=O)Nc1c(C)cccc1C` (stereo not shown) [bupivacaine hydrochloride monohydrate], the solubility is 40 to 50 mg/mL.
